Measurements: the supplement of paper PMC10307832

How the values were obtained:
Assay in all cases: relative viability (nuclei count vs DMSO), 5 days (fraction); higher = more cells survive
RU-SKI 43 + Palbociclib = compound: CC[C@@H](C)CNCC(=O)N1CCC2=C([C@@H]1COC3=CC=CC(=C3)C)C=CS2 [RU-SKI 43] + CC(=O)c1c(C)c2cnc(Nc3ccc(N4CCNCC4)cn3)nc2n(C2CCCC2)c1=O [Palbociclib] (partner 0.5 µM)
How it was run: (§1)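 Relative viability divides the nuclei count in treated wells by that in vehicle wells. Lung cancer cell lines were seeded in 1536-well plates, dosed by pin tool the next day, and fixed and stained after 5 days in one step with final 0.05% Triton X-100, 1% formaldehyde and 1 ug/ml Hoechst. Dosing was a single drug or a fixed anchor-drug dose plus five library-drug doses (not always all listed) in √10 steps, and values are medians of duplicate plates imaged at 4×.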

RU-SKI 43 + Dasatinib = compound: CC[C@@H](C)CNCC(=O)N1CCC2=C([C@@H]1COC3=CC=CC(=C3)C)C=CS2 [RU-SKI 43] + Cc1nc(Nc2ncc(C(=O)Nc3c(C)cccc3Cl)s2)cc(N2CCN(CCO)CC2)n1 [Dasatinib] (partner 0.075 µM)
How it was run: as §1

Irinotecan + OSI-027 = compound: CCc1c2c(nc3ccc(OC(=O)N4CCC(N5CCCCC5)CC4)cc13)-c1cc3c(c(=O)n1C2)COC(=O)[C@]3(O)CC [Irinotecan] + COc1cccc2cc(-c3nc([C@H]4CC[C@H](C(=O)O)CC4)n4ncnc(N)c34)[nH]c12 [OSI-027] (partner 0.5 µM)
How it was run: as §1

Irinotecan + AZD7762 = compound: CCc1c2c(nc3ccc(OC(=O)N4CCC(N5CCCCC5)CC4)cc13)-c1cc3c(c(=O)n1C2)COC(=O)[C@]3(O)CC [Irinotecan] + NC(=O)Nc1cc(-c2cccc(F)c2)sc1C(=O)N[C@H]1CCCNC1 [AZD7762] (partner 0.2 µM)
How it was run: as §1

Cell Line	relative viability (RU-SKI 43 + Palbociclib; first compound 0.1 µM)	relative viability (RU-SKI 43 + Palbociclib; first compound 0.3162 µM)	relative viability (RU-SKI 43 + Palbociclib; first compound 1 µM)	relative viability (RU-SKI 43 + Palbociclib; first compound 3.162 µM)	relative viability (RU-SKI 43 + Palbociclib; first compound 10 µM)	relative viability (RU-SKI 43 + Dasatinib; first compound 0.1 µM)	relative viability (RU-SKI 43 + Dasatinib; first compound 0.3162 µM)	relative viability (RU-SKI 43 + Dasatinib; first compound 1 µM)	relative viability (RU-SKI 43 + Dasatinib; first compound 3.162 µM)	relative viability (RU-SKI 43 + Dasatinib; first compound 10 µM)	relative viability (Irinotecan + OSI-027; first compound 2 µM)	relative viability (Irinotecan + OSI-027; first compound 6.325 µM)	relative viability (Irinotecan + OSI-027; first compound 20 µM)	relative viability (Irinotecan + AZD7762; first compound 0.6325 µM)	relative viability (Irinotecan + AZD7762; first compound 2 µM)	relative viability (Irinotecan + AZD7762; first compound 6.325 µM)	relative viability (Irinotecan + AZD7762; first compound 20 µM)	relative viability (Irinotecan + OSI-027; first compound 0.6325 µM)
CAL-12T	0.413	0.474	0.365	0.457	0.391	0.404	0.41	0.348	0.38	0.413	0.798	0.357	0.101	0.676	0.564	0.453	0.29	–
ChaGo-K-1	0.919	1.05	1	0.976	0.956	0.651	0.532	0.574	0.492	0.502	0.39	0.215	0.212	0.584	0.542	0.27	0.204	0.272
EKVX	0.332	0.319	0.336	0.379	0.353	0.457	0.413	0.524	0.57	0.618	0.625	0.49	0.162	–	0.632	0.426	0.246	0.664
EMC-BAC-2	0.523	0.477	0.552	0.505	0.518	0.334	0.299	0.362	0.317	0.296	0.331	0.274	0.287	0.942	0.696	0.327	0.287	0.316
EPLC-272H	0.315	0.254	0.323	0.286	0.307	0.267	0.351	0.317	0.317	0.321	0.268	0.165	0.249	–	0.234	0.133	0.137	0.224
H3255	0.313	0.316	0.331	0.32	0.301	0.364	0.387	0.578	0.393	0.309	0.445	0.373	0.367	0.713	0.611	0.354	0.388	0.502
HARA	0.233	0.205	0.281	0.28	0.233	0.288	0.317	0.303	0.34	0.156	0.186	0.142	0.0795	0.2	0.278	0.154	0.255	0.148
HCC-15	0.706	0.883	0.76	0.753	0.665	0.709	0.635	0.689	0.633	0.64	0.441	0.198	0.14	1.09	1.08	0.609	0.22	–
HCC-78	0.43	0.408	0.533	0.461	0.503	0.457	0.349	0.607	0.319	0.369	0.35	0.229	0.235	0.629	0.666	0.392	0.302	0.37
HCC-366	0.274	0.447	0.416	0.396	0.264	0.61	0.955	0.715	0.698	0.476	0.714	0.0844	0.0682	0.182	0.138	0.0668	0.0622	0.144
HCC-827	0.474	0.414	0.56	0.498	0.427	0.249	0.267	0.319	0.298	0.331	0.64	0.224	0.216	0.201	0.193	0.203	0.182	0.639
HOP-62	0.462	0.508	0.532	0.469	0.403	0.741	0.709	0.875	0.641	0.603	0.768	0.224	0.22	0.211	0.316	0.236	0.161	0.48
LC-2-ad	0.509	0.579	0.532	0.514	0.445	0.587	0.634	0.77	0.605	0.552	0.606	0.372	0.148	0.446	0.567	0.272	0.17	0.384
LCLC-97TM1	0.296	0.189	0.281	0.222	0.231	0.961	0.919	0.974	0.811	0.796	0.207	0.108	0.133	0.0915	0.143	0.105	0.116	0.224
LCLC-103H	0.525	0.453	0.471	0.495	0.496	0.502	0.481	0.64	0.453	0.49	0.496	0.339	0.347	0.458	0.682	0.497	0.4	0.483
LK-2	0.685	0.912	0.949	0.673	0.674	0.308	0.248	0.315	0.295	0.251	0.2	0.237	0.253	0.316	0.388	0.222	0.281	0.162
LOU-NH91	0.523	0.515	0.552	0.496	0.518	0.553	0.604	0.624	0.581	0.554	0.688	0.386	0.365	0.719	0.756	0.421	0.156	0.688
